Assay results reported in patent US4868321A, “Isothiocyanate intermediates” (FMC Corporation, priority 1988, dated 1989).

What was measured:
Type in all cases: in vivo
broad leaf weeds = assay: preemergence use against broad leaf weeds; conditions: with crops such as corn, rice, wheat and soybeans
weeds of wide spectrum = assay: weed control of paddy rice in pots, weeds; conditions: 1 day and 11 day treatments, e.g. about 0.06 kg/ha or less
Text: (§1) In addition, tests of the effectiveness of weed control of paddy rice were done in pots containing clay loam paddy soil under water maintained at a depth of 3 cm. In one test tubers of narrowleaf arrowhead (Sagittaria pymaea) and rhizomes of flatsedge (Cyperus serotinus) were planted in pots at depth of 2 cm and 0.5 cm respectively, rice seedlings of 2.2 leaf state were transplanted in depth of 2 cm and 0 cm and a controlled amount of a 10% wp (wettable powder) formulation of the herbicidal compound in water was dropped into the water over the soil at 1 day and 11 days, respectively, after transplanting. In another test, seeds of various weed species (including barnyardgrass, Echinochoa crus-galli; small flower umbrellaplant, Cyperus difformis; bulrush, Scripus juncoides; Japanese ducksalad, Monochoria vaginalis; annual broadleaf weeds; and narrowleaf waterplantain, Alisma canaliculatium) were sown on the surface of the soil and the same (1 day and 11 day) herbicide applications were made.

Morningglory [1] = assay: Postemergence Herbicidal Activity, Morningglory; conditions: Ipomoea, post-emergence
In short: (§2)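 Applications are made pre- or postemergence from 50/50 acetone/water solutions of each compound. Effect is recorded as % C at the stated kg/ha rate.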

Johnsongrass [2] = assay: Preemergence Herbicidal Activity, Johnsongrass; conditions: Sorghum halepense, pre-emergence
In short: (§3)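 Herbicidal response was graded as percent control. Compound rates were in kg/ha.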

Velvetleaf [3] = assay: Postemergence Herbicidal Activity, Velvetleaf; conditions: Abutilon theophrasti, post-emergence
In short: as §2

Field Bindweed [4] = assay: Postemergence Herbicidal Activity, Field Bindweed; conditions: post-emergence
In short: as §2

Rice [5] = assay: weed control of paddy rice in pots, transplanted rice; conditions: rice transplanted at a depth of 2 cm
Text: as §1

Green Foxtail [6] = assay: Preemergence Herbicidal Activity, Green Foxtail; conditions: Setaria viridis, pre-emergence
In short: as §3

Field Corn [7] = assay: Postemergence Herbicidal Activity, Field Corn; conditions: Zea mays, post-emergence
In short: (§4)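 Application rate is expressed per hectare in kilograms. Values are percent control.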

Soybean [8] = assay: Preemergence Herbicidal Activity, Soybean
In short: as §4

Barnyardgrass [9] = assay: Postemergence Herbicidal Activity, Barnyardgrass; conditions: Echinochloa crus-galli, post-emergence
In short: as §3

Johnsongrass [10] = assay: Postemergence Herbicidal Activity, Johnsongrass; conditions: Sorghum halepense, post-emergence
In short: as §3

Cotton [11] = assay: Postemergence Herbicidal Activity, Cotton; conditions: Gossypium hirsutum, post-emergence
In short: as §2

Rice [12] = assay: Postemergence Herbicidal Activity, Rice; conditions: Oryza sativa, post-emergence
In short: as §4

Green Foxtail [13] = assay: Postemergence Herbicidal Activity, Green Foxtail; conditions: Setaria viridis, post-emergence
In short: as §3

Barnyardgrass [14] = assay: Preemergence Herbicidal Activity, Barnyardgrass; conditions: Echinochloa crus-galli, pre-emergence
In short: as §3

Wheat [15] = assay: Postemergence Herbicidal Activity, Wheat; conditions: Triticum aestivum, post-emergence
In short: as §4

broadleafed weeds = assay: postemergence control of broadleaf weeds
Soybean [16] = assay: Postemergence Herbicidal Activity, Soybean; conditions: Glycine max, post-emergence
In short: as §4

[17] = test system: soybeans, corn, barley, wheat, rice (e.g. paddy rice), beans, peas, peanuts and potatoes; assay: selective herbicidal use on crops, especially preemergent
Cotton [18] = assay: Preemergence Herbicidal Activity, Cotton
In short: as §2

Wheat [19] = assay: Preemergence Herbicidal Activity, Wheat; conditions: Triticum aestivum, pre-emergence
In short: as §4

Rice [20] = assay: Preemergence Herbicidal Activity, Rice; conditions: Oryza sativa, pre-emergence
In short: as §4

corn, wheat and soybeans = assay: postemergence crop selectivity
Field Corn [21] = assay: Preemergence Herbicidal Activity, Field Corn; conditions: Zea mays, pre-emergence
In short: as §4

Morningglory [22] = assay: Preemergence Herbicidal Activity, Morningglory; conditions: Ipomoea, pre-emergence
In short: as §2

Field Bindweed [23] = assay: Preemergence Herbicidal Activity, Field Bindweed; conditions: pre-emergence
In short: as §2

Velvetleaf [24] = assay: Preemergence Herbicidal Activity, Velvetleaf; conditions: Abutilon theophrasti, pre-emergence
In short: as §2

cotton or soybeans = assay: preemergence crop selectivity; conditions: rates below about 1/4 or 1/10 kg/ha

With `CCS(=O)(=O)Nc1cc(-n2nnn(CCCF)c2=O)c(F)cc1Cl` [Compound 4, 1-[4-chloro-2-fluoro-5-(ethylsulfonylamino)phenyl]-1,4-dihydro-4-(3-fluoropropyl)-5H-tetrazol-5-one] the “usefulness preemergently against broad leaf weeds” value (broad leaf weeds) was “particularly useful”, the “activity against weeds (paddy)” value (weeds of wide spectrum) was “very high activity” and the pest or weed control at 250 g/ha (Morningglory [1]; 0.25 kg/ha) was 95%. It also gave a pest or weed control at 250 g/ha (Johnsongrass [2]; 0.25 kg/ha) of 30%, a pest or weed control at 250 g/ha (Velvetleaf [3]; 0.25 kg/ha) of 100% and a pest or weed control at 250 g/ha (Field Bindweed [4]; 0.25 kg/ha) of 100%. For the same compound, the “selectivity (paddy rice)” value (Rice [5]) was “selectivity favorable to rice”, the pest or weed control at 250 g/ha (Green Foxtail [6]; 0.25 kg/ha) was 20% and the plant injury at 250 g/ha (Field Corn [7]; 0.25 kg/ha) was 50%. The “Preemergence Herbicidal Activity” value (Soybean [8]; 0.25 kg/ha) was 0 % Control, the pest or weed control at 250 g/ha (Barnyardgrass [9]; 0.25 kg/ha) was 50% and the pest or weed control at 250 g/ha (Johnsongrass [10]; 0.25 kg/ha) was 20%. It also gave a plant injury at 250 g/ha (Cotton [11]; 0.25 kg/ha) of 100%, a plant injury at 250 g/ha (Rice [12]; 0.25 kg/ha) of 20% and a pest or weed control at 250 g/ha (Green Foxtail [13]; 0.25 kg/ha) of 80%. The pest or weed control at 250 g/ha (Barnyardgrass [14]; 0.25 kg/ha) was 80%, the plant injury at 250 g/ha (Wheat [15]; 0.25 kg/ha) was 20% and the “control of broadleafed weeds, postemergent” value (broadleafed weeds; plantings of corn, wheat, barley, oats, rice and sorghum, about 30 to 250 g/ha, e.g. 125 g/ha) was “very good control”. For the same compound, the plant injury at 250 g/ha (Soybean [16]; 0.25 kg/ha) was 60%, the effective rate ([17]; "effective at low rates, e.g. at about 0.5 kg/ha and below") was at most 0.5 kg/ha and the selective herbicidal effectiveness ([17]; especially preemergent use on crops) was “particularly effective”. For the same compound, the “Preemergence Herbicidal Activity” value (Cotton [18]; 0.25 kg/ha) was 95 % Control and the plant injury at 250 g/ha (Wheat [19]; 0.25 kg/ha) was 10%.
For `CCS(=O)(=O)N(c1cc(-n2nnn(CCCF)c2=O)c(F)cc1Cl)S(C)(=O)=O` [Compound 11, 1-[4-chloro-2-fluoro-5-[(N--ethylsulfonyl-N--methylsulfonyl)amino]-phenyl]-1,4-dihydro-4-(3-fluoropropyl)-5H--tetrazol-5-one], the plant injury at 500 g/ha (Rice [20]; 0.5 kg/ha) was 80%, the “selectivity for crops, postemergence” value (corn, wheat and soybeans) was “favorable selectivity” and the plant injury at 500 g/ha (Field Corn [21]; 0.5 kg/ha) was 95%. For the same compound, the pest or weed control at 500 g/ha (Morningglory [1]; 0.5 kg/ha) was 80%, the pest or weed control at 500 g/ha (Morningglory [22]; 0.5 kg/ha) was 100% and the pest or weed control at 500 g/ha (Johnsongrass [2]; 0.5 kg/ha) was 90%. The pest or weed control at 500 g/ha (Velvetleaf [3]; 0.5 kg/ha) was 100%, the pest or weed control at 500 g/ha (Field Bindweed [4]; 0.5 kg/ha) was 100% and the pest or weed control at 500 g/ha (Green Foxtail [6]; 0.5 kg/ha) was 100%. The plant injury at 500 g/ha (Field Corn [7]; 0.5 kg/ha) was 80%, the plant injury at 500 g/ha (Soybean [8]; Glycine max, pre-emergence, 0.5 kg/ha) was 30% and the pest or weed control at 500 g/ha (Barnyardgrass [9]; 0.5 kg/ha) was 80%. It also gave a pest or weed control at 500 g/ha (Johnsongrass [10]; 0.5 kg/ha) of 50%, a plant injury at 500 g/ha (Cotton [11]; 0.5 kg/ha) of 100% and a plant injury at 500 g/ha (Rice [12]; 0.5 kg/ha) of 40%. It also gave a pest or weed control at 500 g/ha (Green Foxtail [13]; 0.5 kg/ha) of 80%, a pest or weed control at 500 g/ha (Barnyardgrass [14]; 0.5 kg/ha) of 100% and a plant injury at 500 g/ha (Wheat [15]; 0.5 kg/ha) of 70%. The pest or weed control at 500 g/ha (Field Bindweed [23]; 0.5 kg/ha) was 100%, the “results in postemergence use against broadleafed weeds” value (broadleafed weeds; postemergence, corn, wheat and soybeans) was “particularly good results” and the plant injury at 500 g/ha (Soybean [16]; 0.5 kg/ha) was 60%. It also gave a plant injury at 500 g/ha (Cotton [18]; Gossypium hirsutum, pre-emergence, 0.5 kg/ha) of 100%, a pest or weed control at 500 g/ha (Velvetleaf [24]; 0.5 kg/ha) of 100% and a plant injury at 500 g/ha (Wheat [19]; 0.5 kg/ha) of 80%.
`CCCN(c1cc(-n2nnn(CCCF)c2=O)c(F)cc1Cl)S(=O)(=O)CC` [Compound 14] showed a plant injury at 1000 g/ha (Rice [20]; 1.0 kg/ha) of 100%, a plant injury at 1000 g/ha (Field Corn [21]; 1.0 kg/ha) of 100% and a pest or weed control at 1000 g/ha (Morningglory [1]; 1.0 kg/ha) of 100%. It also gave a pest or weed control at 1000 g/ha (Morningglory [22]; 1.0 kg/ha) of 100%, a pest or weed control at 1000 g/ha (Johnsongrass [2]; 1.0 kg/ha) of 100% and a pest or weed control at 1000 g/ha (Velvetleaf [3]; 1.0 kg/ha) of 100%. The pest or weed control at 1000 g/ha (Field Bindweed [4]; 1.0 kg/ha) was 100%, the pest or weed control at 1000 g/ha (Green Foxtail [6]; 1.0 kg/ha) was 100% and the plant injury at 1000 g/ha (Field Corn [7]; 1.0 kg/ha) was 100%. For the same compound, the plant injury at 1000 g/ha (Soybean [8]; Glycine max, pre-emergence, 1.0 kg/ha) was 95%, the pest or weed control at 1000 g/ha (Barnyardgrass [9]; 1.0 kg/ha) was 100% and the pest or weed control at 1000 g/ha (Johnsongrass [10]; 1.0 kg/ha) was 100%. It also gave a plant injury at 1000 g/ha (Cotton [11]; 1.0 kg/ha) of 100%, a plant injury at 1000 g/ha (Rice [12]; 1.0 kg/ha) of 100% and a pest or weed control at 1000 g/ha (Green Foxtail [13]; 1.0 kg/ha) of 100%. It also gave a pest or weed control at 1000 g/ha (Barnyardgrass [14]; 1.0 kg/ha) of 100%, a plant injury at 1000 g/ha (Wheat [15]; 1.0 kg/ha) of 100% and a pest or weed control at 1000 g/ha (Field Bindweed [23]; 1.0 kg/ha) of 100%. The plant injury at 1000 g/ha (Soybean [16]; 1.0 kg/ha) was 100%, the plant injury at 1000 g/ha (Cotton [18]; Gossypium hirsutum, pre-emergence, 1.0 kg/ha) was 100% and the pest or weed control at 1000 g/ha (Velvetleaf [24]; 1.0 kg/ha) was 100%. The plant injury at 1000 g/ha (Wheat [19]; 1.0 kg/ha) was 100% and the herbicide selectivity (cotton or soybeans) was “highly selective”.
